Earlier results in article PMC6376154 (International Journal for Parasitology: Drugs and Drug …, 2019).
pEC50: −log10 of the molar value. Like-named read-outs stand apart in the source and are kept apart here.

System: P. falciparum 3D7 asexual blood stage
Conditions: cited from earlier work
[1] = MMV Malaria Box data sheet (supplement mmc2.xls), ref MMV data sheet
[2] = value(s) per source (GSK, GNF, StJude), separated by semicolon, ref ChEMBL-NTD, read-out: CHEMBL EC50
[3] = MMV Malaria Box data sheet, ref MMV data sheets
[4] = MMV Malaria Box data sheet, ref MMV data sheets, read-out: EC50_nM
[5] = source GNF, ref ChEMBL_NTD, read-out: CHEMBL EC50
[6] = MMV Malaria Box data sheet (supplement mmc2.xls), ref MMV data sheet, read-out: EC50_nM
[7] = MMV Malaria Box sheet, ref MMV data sheets
[8] = source GSK, ref ChEMBL_NTD, read-out: CHEMBL EC50
[9] = ChEMBL-NTD value per source (GNF, GSK, StJude), several values in a cell follow the order of the sources, read-out: CHEMBL EC50
[10] = MMV Malaria Box sheet, ref MMV data sheets, read-out: EC50_nM

## CCCCOc1ccc(C(=O)Nc2cc(C)on2)cc1 [MMV007906]
[1]
  percent_inh @ 5 uM: 73%
[2]
  pEC50: 5.50

## Cc1ccc(Nc2nc(-c3ccccn3)cs2)cc1 [MMV007907]
[3]
  percent_inh @ 5 uM: 79%
[4]
  pEC50: 6.46
[5]
  pEC50: 6.39

## O=c1nc(C=Cc2ccc(Cl)cc2)oc2ccccc12 [MMV007977]
[1]
  percent_inh @ 5 uM: 76%
[6]
  pEC50: 6.00

## CCOc1ccc(CCNC(=O)c2cccs2)cc1OCC [MMV007978]
[7]
  percent_inh @ 5 uM: 95%
[5]
  pEC50: 6.05

## CN1CCN(c2c3c(c(C#N)c4nc5ccccc5n24)CCC3)CC1 [MMV008127]
[1]
  percent_inh @ 2 uM: 42%
[6]
  pEC50: 5.40
[2]
  pEC50: 5.93

## O=C(O)C1Cc2c([nH]c3ccccc23)C(c2ccc(Cl)cc2Cl)N1 (centres unmarked) [MMV008138]
[4]
  pEC50: 6.46
[5]
  pEC50: 5.99
[8]
  pEC50: 6.02

## Cc1c(C)n(Cc2ccc(F)cc2)c2ccc(C(=O)NCc3ccco3)cc12 [MMV008149]
[1]
  percent_inh @ 5 uM: 52%
[2]
  pEC50: 7.11

## CN1C=C(c2ccc3ccccc3n2)C(c2c[nH]c3ccccc23)c2ccccc21 (centres unmarked) [MMV008160]
[9]
  pEC50: 5.94

## COc1cc(OC)cc(N2C(=O)N(Cc3ccc(C(C)(C)C)cc3)c3ccccc3S2(=O)=O)c1 [MMV008173]
[7]
  percent_inh @ 5 uM: 97%
[10]
  pEC50: 5.84
[5]
  pEC50: 5.43

## Oc1c2c(nc3cc(-c4ccccc4)nn13)CCCC2 [MMV008270]
[1]
  percent_inh @ 5 uM: 77%
[2]
  pEC50: 5.72

## CCOC(=O)c1cnc2c(C)cc(C)cc2c1Nc1ccc(OC)c(OC)c1 [MMV008294]
[3]
  percent_inh @ 5 uM: 96%
[4]
  pEC50: 6.63
[5]
  pEC50: 5.75

## CCCc1c(CC)c(=N)c2ccccc2n1C [MMV008416]
[3]
  percent_inh @ 5 uM: 69%
[4]
  pEC50: 6.62
[5]
  pEC50: 6.12

## COc1ccc(C2C(C(=O)Nc3cccc(OC)c3)c3ccccc3C(=O)N2C2CCCCC2)cc1 (centres unmarked) [MMV008455]
[7]
  percent_inh @ 5 uM: 97%
[10]
  pEC50: 5.93
[5]
  pEC50: 5.96

## CCN1CCN(c2c(C(=O)c3ccccc3)cnc3cc(OC)c(OC)cc23)CC1 [MMV008474]
[7]
  percent_inh @ 5 uM: 59%
[5]
  pEC50: 5.52

## CCCn1c(=N)c(C(=O)NC2CCCCC2)cc2c(=O)n3cccc(C)c3nc21 [MMV008829]
[9]
  pEC50: 6.34

## CCOc1cc2c(cc1OCC)C(c1cc(OC)c(O)cc1Cl)NCC2 (centres unmarked) [MMV008956]
[3]
  percent_inh @ 5 uM: 98%
[4]
  pEC50: 6.43
[5]
  pEC50: 6.44
[8]
  pEC50: 6.13

## O=C(CCc1ccccc1)c1ccccc1OCC(O)CN1CCCCC1 (centres unmarked) [MMV009015]
[9]
  pEC50: 6.06

## CCN(CC)c1ccc(NC(=O)c2cccs2)cc1 [MMV009060]
[1]
  percent_inh @ 5 uM: 88%
[2]
  pEC50: 6.38

## OC(CNC1CCCCC1)Cn1c2ccccc2c2ccccc21 (centres unmarked) [MMV009063]
[3]
  percent_inh @ 5 uM: 93%
[4]
  pEC50: 6.53
[5]
  pEC50: 6.32
[8]
  pEC50: 6.00

## O=C1c2ccc3c4c(ccc(c24)C(=O)N1CCCCO)C(=O)N(CCCCO)C3=O [MMV009085]
[9]
  pEC50: 6.45

## CCN(CC)S(=O)(=O)c1ccc(-c2csc(Nc3ccc(C)c(C)c3)n2)cc1 [MMV009108]
[1]
  percent_inh @ 5 uM: 97%
[6]
  pEC50: 6.19
[2]
  pEC50: 5.68

## CC1CCN(Cc2c(O)ccc3cc(-c4nc5ccccc5s4)c(=O)oc23)CC1 [MMV009127]
[7]
  percent_inh @ 5 uM: 91%
[10]
  pEC50: 5.95
[5]
  pEC50: 4.90

## Cc1cc(Nc2ccc3ccccc3c2)n2ncnc2n1 [MMV011099]
[4]
  pEC50: 6.62
[8]
  pEC50: 6.76

## Cc1cc(Nc2ccc(Cl)cc2)n2nc(C(F)(F)F)nc2n1 [MMV011256]
[4]
  pEC50: 6.67
[8]
  pEC50: 6.93

## Cc1cc(C)cc(Nc2cc(C)nc3nc(C(F)(F)F)nn23)c1 [MMV011259]
[4]
  pEC50: 7.07

## CC(C)(C)c1ccc(C2CC3=Nc4ccccc4N(C(=O)c4ccccc4Cl)C(c4ccc(F)cc4)C3=C(O)C2)cc1 (centres unmarked) [MMV011436]
[9]
  pEC50: 5.58

## COC(=O)c1ccc(C2C3=C(O)CC(c4ccc(F)cc4)CC3=Nc3ccccc3N2C(=O)c2ccccc2)cc1 (centres unmarked) [MMV011438]
[9]
  pEC50: 6.48

## COc1ccc(C(=O)Nc2nonc2-c2ccc(OC)c(OC)c2)cc1Cl [MMV011567]
[3]
  percent_inh @ 5 uM: 92%
[4]
  pEC50: 6.29
[5]
  pEC50: 5.75
[8]
  pEC50: 6.17

## CCOC(=O)C1CCN(C(=O)CN2C(=O)c3ccccc3C2c2c[nH]c3ccccc23)CC1 (centres unmarked) [MMV011576]
[7]
  percent_inh @ 5 uM: 98%
[10]
  pEC50: 5.93
[5]
  pEC50: 6.28

## Oc1ccccc1CN1CCN(C(c2ccccc2)c2ccccc2)CC1 [MMV011795]
[1]
  percent_inh @ 5 uM: 97%
[6]
  pEC50: 6.21

## Oc1ccc2ccccc2c1CNc1nc2ccccc2[nH]1 [MMV011832]
[9]
  pEC50: 6.19

## Nc1ccc(-c2nc3cc(Oc4ccc(Oc5ccc6[nH]c(-c7ccc(N)cc7)nc6c5)cc4)ccc3[nH]2)cc1 [MMV011895]
[9]
  pEC50: 6.54

## COc1cccc(Nc2nc(NCCO)c3ccccc3n2)c1 [MMV011944]
[6]
  pEC50: 6.07

## Cc1cc(NC(=O)c2ccc(-c3ccccc3)cc2)no1 [MMV018984]
[1]
  percent_inh @ 5 uM: 95%
[6]
  pEC50: 6.16
[2]
  pEC50: 5.99

## COCCNCC(O)Cn1c2ccc(Cl)cc2c2cc(Cl)ccc21 (centres unmarked) [MMV019017]
[6]
  pEC50: 6.00
[2]
  pEC50: 7.28

## COc1cccc(-c2nn(C)c3sc(C(=O)NCCN4CCN(c5ccccc5F)CC4)cc23)c1 [MMV019064]
[1]
  percent_inh @ 5 uM: 91%
[6]
  pEC50: 5.89
[2]
  pEC50: 6.02

## COc1ccccc1CNC(=O)CCn1c(=O)[nH]c2ccsc2c1=O [MMV019066]
[3]
  percent_inh @ 5 uM: 67%
[4]
  pEC50: 6.85
[8]
  pEC50: 5.98

## CCN1CCN(c2cc(C)c3cc(NC(=O)c4ccc(OC)c(OC)c4)ccc3n2)CC1 [MMV019074]
[1]
  percent_inh @ 5 uM: 99%
[2]
  pEC50: 5.99

## Cc1cccc(Nc2nc(N)c3ccccc3n2)c1 [MMV019110]
[3]
  percent_inh @ 2 uM: 97%
[4]
  pEC50: 6.40
[8]
  pEC50: 6.24

## CCN(Cc1ccccc1)C1CCN(Cc2cc(Br)ccc2O)CC1 [MMV019127]
[1]
  percent_inh @ 5 uM: 97%
[6]
  pEC50: 6.20
[2]
  pEC50: 6.08

## COc1cccc(Nc2nc(N)c3ccccc3n2)c1 [MMV019199]
[9]
  pEC50: 6.03

## O=C(Nc1ccc(-c2nc3cc4ccccc4cc3[nH]2)cc1)c1cccc(Br)c1 [MMV019241]
[7]
  percent_inh @ 5 uM: 93%
[10]
  pEC50: 6.35
[8]
  pEC50: 6.44

## COc1ccc(-n2ccnc2SCC(=O)Nc2cc(C)ccc2C)c(OC)c1 [MMV019258]
[3]
  percent_inh @ 5 uM: 95%
[4]
  pEC50: 6.77
[8]
  pEC50: 6.69

## Cc1sc2ncnc(Sc3nc4ccccc4[nH]3)c2c1C [MMV019266]
[7]
  percent_inh @ 5 uM: 100%
[10]
  pEC50: 6.21
[8]
  pEC50: 6.59

## Cn1c(=O)c2cc(C(=O)NCCCN3CCCCCC3)sc2c2ccccc21 [MMV019313]
[1]
  percent_inh @ 5 uM: 97%
[6]
  pEC50: 6.17
[2]
  pEC50: 6.16

## CCC1(C)CC(CCNCc2ccccc2O)(c2ccc(C)cc2)CCO1 (centres unmarked) [MMV019406]
[3]
  percent_inh @ 5 uM: 97%
[4]
  pEC50: 6.85
[8]
  pEC50: 7.41

## c1ccc2c(NCCCCCCNc3c4c(nc5ccccc35)CCCC4)c3c(nc2c1)CCCC3 [MMV019555]
[7]
  percent_inh @ 5 uM: 100%
[10]
  pEC50: 6.42
[8]
  pEC50: 6.71

## COc1ccc(N2CCN(C(CNC(=O)C3CCCCC3)c3ccc4c(c3)OCO4)CC2)cc1 (centres unmarked) [MMV019662]
[1]
  percent_inh @ 5 uM: 97%
[6]
  pEC50: 5.95
[2]
  pEC50: 6.25

## O=C(Nc1ccc(N2CCN(Cc3ccccc3)CC2)cc1)c1cccs1 [MMV019670]
[1]
  percent_inh @ 5 uM: 59%
[6]
  pEC50: 5.97
[2]
  pEC50: 6.11
